Measured values: patent US20020137929A1, “1 - (3-heterocyclylphenyl) isothiourea, -isourea, -guanidine and -amidine herbicidal agents” (Intellectual Property Department, BASF Aktiengesellschaft, priority 1998, published 2002)

Legend:
AMBEL (Ragweed, Common) [1] = assay: Postemergence herbicidal evaluation; type: in vivo, Ambrosia artemisifolia; conditions: postemergence
Summary of the method: (§1)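 Compound is applied as a foliar spray to seedlings about two weeks old, formulated in equal parts acetone and water with 0.5% TWEEN 20 and delivered at 40 psi to give about 0.0156–0.500 kg per hectare. Injury is rated visually 0–9 after four to five weeks.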

CASOB (Sicklepod) [2] = assay: Postemergence herbicidal evaluation; type: in vivo, Cassia obtusifolia; conditions: postemergence
Summary of the method: as §1

[3] = test system: CHEAL (Lambsquarters, Common); assay: Postemergence herbicidal evaluation; type: in vivo, Chenopodium album; conditions: postemergence
Summary of the method: as §1

[4] = test system: IPOHE (Morningglory, Ivyleaf); assay: Postemergence herbicidal evaluation; type: in vivo, Ipomoea hederacea; conditions: postemergence
Summary of the method: as §1

ECHCG (Barnyardgrass) = assay: Postemergence herbicidal evaluation; type: in vivo, Echinochloa crus-galli; conditions: postemergence
Summary of the method: as §1

[5] = test system: GLXMAW (Soybean, Williams); assay: Postemergence herbicidal evaluation; type: in vivo, Glycine max, (L.) Merr. cv Williams; conditions: postemergence
Summary of the method: as §1

[6] = test system: TRZAWR (Wheat, Winter, cv Riband); assay: Postemergence herbicidal evaluation; type: in vivo, Triticum aestivum; conditions: postemergence
Summary of the method: as §1

ABUTH (Velvetleaf) = assay: Preemergence herbicidal evaluation; type: in vivo, Abutilon theophrasti; conditions: rated 4-5 weeks after treatment, rating scale 0-9
Summary of the method: (§2)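 Each species is sown separately in potting soil over roughly an inch of soil before any emergence. The soil surface then receives an aqueous acetone spray delivering about 0.0156 to 0.500 kg/ha of compound. After four to five weeks, injury is scored from 0 to 9 relative to a control.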

AMBEL (Ragweed, Common) [7] = assay: Preemergence herbicidal evaluation; type: in vivo, Ambrosia artemisifolia; conditions: rated 4-5 weeks after treatment, rating scale 0-9
Summary of the method: as §2

CASOB (Sicklepod) [8] = assay: Preemergence herbicidal evaluation; type: in vivo, Cassia obtusifolia; conditions: rated 4-5 weeks after treatment, rating scale 0-9
Summary of the method: as §2

[9] = test system: CHEAL (Lambsquarters, Common); assay: Preemergence herbicidal evaluation; type: in vivo, Chenopodium album; conditions: rated 4-5 weeks after treatment, rating scale 0-9
Summary of the method: as §2

[10] = test system: IPOHE (Morningglory, Ivyleaf); assay: Preemergence herbicidal evaluation; type: in vivo, Ipomoea hederacea; conditions: rated 4-5 weeks after treatment, rating scale 0-9
Summary of the method: as §2

[11] = test system: GLXMAW (Soybean, Williams); assay: Preemergence herbicidal evaluation; type: in vivo, Glycine max, (L.) Merr. cv Williams; conditions: rated 4-5 weeks after treatment, rating scale 0-9
Summary of the method: as §2

ORYSAT (Rice, Tebonnet) = assay: Preemergence herbicidal evaluation; type: in vivo, Oryza sativa, (L.) Tebonnet; conditions: rated 4-5 weeks after treatment, rating scale 0-9
Summary of the method: as §2

MOOVA (Monochoria) = assay: Preemergence weed control under flooded paddy conditions; type: in vivo, Monochoria vaginalis; conditions: rated 3-4 weeks after treatment
Summary of the method: (§3)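 Herbicidal effect is scored visually on a 0-9 scale against an untreated control, three to four weeks after compounds are pipetted into the flood water (1.5 to 3 cm deep) over seeds planted in silt loam at 0.5 cm depth. Rates: about 0.0313 to 0.500 kg/ha.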

[12] = test system: SAGPY (Arrowhead (Pygmaea)); assay: as above; type: in vivo, Sagittaria pygmaea; conditions: rated 3-4 weeks after treatment
Summary of the method: as §3

With Cn1c(C(F)(F)F)cc(=O)n(-c2cc(N=C3SCC(=O)N3Cc3ccccn3)c(Cl)cc2F)c1=O [Compound 131] the “Herbicidal rating AMBEL” value (AMBEL (Ragweed, Common) [1]; rate 0.0156 kg/ha) was 7.0, the “Herbicidal rating AMBEL” value (AMBEL (Ragweed, Common) [1]; rate 0.0313 kg/ha) was 9.0 and the “Herbicidal rating AMBEL” value (AMBEL (Ragweed, Common) [1]; rate 0.0625 kg/ha) was 9.0. For the same compound, the “Herbicidal rating CASOB” value (CASOB (Sicklepod) [2]; rate 0.0156 kg/ha) was 1.0, the “Herbicidal rating CASOB” value (CASOB (Sicklepod) [2]; rate 0.0313 kg/ha) was 1.0 and the “Herbicidal rating CASOB” value (CASOB (Sicklepod) [2]; rate 0.0625 kg/ha) was 3.0. For the same compound, the “Herbicidal rating CHEAL” value ([3]; rate 0.0156 kg/ha) was 3.0, the “Herbicidal rating CHEAL” value ([3]; rate 0.0313 kg/ha) was 5.0 and the “Herbicidal rating CHEAL” value ([3]; rate 0.0625 kg/ha) was 9.0. For the same compound, the “Herbicidal rating IPOHE” value ([4]; rate 0.0156 kg/ha) was 7.0, the “Herbicidal rating IPOHE” value ([4]; rate 0.0313 kg/ha) was 9.0 and the “Herbicidal rating IPOHE” value ([4]; rate 0.0625 kg/ha) was 9.0. The “Herbicidal rating ECHCG” value (ECHCG (Barnyardgrass); rate 0.0156 kg/ha) was 2.0, the “Herbicidal rating ECHCG” value (ECHCG (Barnyardgrass); rate 0.0313 kg/ha) was 2.0 and the “Herbicidal rating ECHCG” value (ECHCG (Barnyardgrass); rate 0.0625 kg/ha) was 2.0. The “Herbicidal rating GLXMAW” value ([5]; rate 0.0156 kg/ha) was 4.5, the “Herbicidal rating GLXMAW” value ([5]; rate 0.0313 kg/ha) was 5.0 and the “Herbicidal rating GLXMAW” value ([5]; rate 0.0625 kg/ha) was 5.5. For the same compound, the “Herbicidal rating TRZAWR” value ([6]; rate 0.0156 kg/ha) was 3.0, the “Herbicidal rating TRZAWR” value ([6]; rate 0.0313 kg/ha) was 3.0 and the “Herbicidal rating TRZAWR” value ([6]; rate 0.0625 kg/ha) was 3.0. For the same compound, the “Preemergence herbicidal rating ABUTH” value (ABUTH (Velvetleaf); rate 0.0313 kg/ha) was 0.0, the “Preemergence herbicidal rating ABUTH” value (ABUTH (Velvetleaf); rate 0.0625 kg/ha) was 0.0 and the “Preemergence herbicidal rating ABUTH” value (ABUTH (Velvetleaf); rate 0.1250 kg/ha) was 2.0. The “Preemergence herbicidal rating ABUTH” value (ABUTH (Velvetleaf); rate 0.2500 kg/ha) was 9.0, the “Preemergence herbicidal rating AMBEL” value (AMBEL (Ragweed, Common) [7]; rate 0.0313 kg/ha) was 0.0 and the “Preemergence herbicidal rating AMBEL” value (AMBEL (Ragweed, Common) [7]; rate 0.0625 kg/ha) was 0.0. The “Preemergence herbicidal rating AMBEL” value (AMBEL (Ragweed, Common) [7]; rate 0.1250 kg/ha) was 0.0, the “Preemergence herbicidal rating AMBEL” value (AMBEL (Ragweed, Common) [7]; rate 0.2500 kg/ha) was 0.0 and the “Preemergence herbicidal rating CASOB” value (CASOB (Sicklepod) [8]; rate 0.0313 kg/ha) was 0.0. For the same compound, the “Preemergence herbicidal rating CASOB” value (CASOB (Sicklepod) [8]; rate 0.0625 kg/ha) was 0.0, the “Preemergence herbicidal rating CASOB” value (CASOB (Sicklepod) [8]; rate 0.1250 kg/ha) was 0.0 and the “Preemergence herbicidal rating CASOB” value (CASOB (Sicklepod) [8]; rate 0.2500 kg/ha) was 2.0. The “Preemergence herbicidal rating CHEAL” value ([9]; rate 0.0313 kg/ha) was 4.0, the “Preemergence herbicidal rating CHEAL” value ([9]; rate 0.0625 kg/ha) was 9.0 and the “Preemergence herbicidal rating CHEAL” value ([9]; rate 0.1250 kg/ha) was 9.0. The “Preemergence herbicidal rating CHEAL” value ([9]; rate 0.2500 kg/ha) was 9.0, the “Preemergence herbicidal rating IPOHE” value ([10]; rate 0.0313 kg/ha) was 0.0 and the “Preemergence herbicidal rating IPOHE” value ([10]; rate 0.0625 kg/ha) was 0.0. For the same compound, the “Preemergence herbicidal rating IPOHE” value ([10]; rate 0.1250 kg/ha) was 0.0, the “Preemergence herbicidal rating IPOHE” value ([10]; rate 0.2500 kg/ha) was 0.0 and the “Preemergence herbicidal rating GLXMAW” value ([11]; rate 0.0313 kg/ha) was 0.0. For the same compound, the “Preemergence herbicidal rating GLXMAW” value ([11]; rate 0.0625 kg/ha) was 1.0, the “Preemergence herbicidal rating GLXMAW” value ([11]; rate 0.1250 kg/ha) was 1.0 and the “Preemergence herbicidal rating GLXMAW” value ([11]; rate 0.2500 kg/ha) was 1.0. The “Preemergence herbicidal rating ORYSAT” value (ORYSAT (Rice, Tebonnet); rate 0.0313 kg/ha) was 0.0, the “Preemergence herbicidal rating ORYSAT” value (ORYSAT (Rice, Tebonnet); rate 0.0625 kg/ha) was 0.0 and the “Preemergence herbicidal rating ORYSAT” value (ORYSAT (Rice, Tebonnet); rate 0.1250 kg/ha) was 0.0. The “Preemergence herbicidal rating ORYSAT” value (ORYSAT (Rice, Tebonnet); rate 0.2500 kg/ha) was 0.0, the “herbicidal effect rating, MOOVA” value (MOOVA (Monochoria); 0.1250 kg/ha) was 0.0 and the “herbicidal effect rating, MOOVA” value (MOOVA (Monochoria); 0.2500 kg/ha) was 2.0. The “herbicidal effect rating, SAGPY” value ([12]; 0.1250 kg/ha) was 0.0 and the “herbicidal effect rating, SAGPY” value ([12]; 0.2500 kg/ha) was 2.0.
